Experimental data reported in patent publication US8846570B2, “Herbicidal compositions comprising 4-amino-3-chloro-5-fluoro-6-(4-chloro-2-fluoro-3-methoxyphenyl)pyridine-2-carboxylic acid or a derivative thereof and microtubule inhibiting herbicides” (Dow AgroSciences LLC, priority 2012, dated 2014).
Read-outs that look alike come from different tables or passages of the source.

Columns and labels:
Assay in all cases: Postemergence foliar-applied, direct seeded rice, greenhouse: visual weed control
Assay type in all cases: in vivo
[1] = tested on: Brachiaria platyphylla (Griseb.) Nash (BRAPP); details: 21 DAA
Excerpt: (§1) Seeds or nutlets of the desired test plant species were planted in a soil matrix prepared by mixing a loam or sandy loam soil (e.g., 28.6 percent silt, 18.8 percent clay, and 52.6 percent sand, with a pH of about 5.8 and an organic matter content of about 1.8 percent) and calcareous grit in an 80 to 20 ratio. The soil matrix was contained in plastic pots with a volume of 1 quart and a surface area of 83.6 cm^2. When required to ensure good germination and healthy plants, a fungicide treatment and/or other chemical or physical treatment was applied. The plants were grown for 8-22 days in a greenhouse with an approximate 14 h photoperiod which was maintained at about 29° C. during the day and 26° C. during the night. Nutrients (Peters Excel® 15-5-15 5-Ca 2-Mg and iron chelate) were applied in the irrigation solution as needed and water was added on a regular basis. Supplemental lighting was provided with overhead metal halide 1000-Watt lamps as necessary. The plants were employed for testing when they reached the first through fourth true leaf stage.
(§2) Treatments consisted of the acid or esters of 4-amino-3-chloro-5-fluoro-6-(4-chloro-2-fluoro-3-methoxy-phenyl)pyridine-2-carboxylic acid (Compound A), each formulated as an SC (suspension concentrate), and various herbicidal components alone and in combination. Forms of compound A were applied on an acid equivalent basis.
(§3) Treatment requirements were calculated based upon the rates being tested, the concentration of active ingredient or acid equivalent in the formulation, and a 12 mL application volume at a rate of 187 L/ha.
(§4) For treatments comprised of formulated compounds, measured amounts of compounds were placed individually in 25 mL glass vials and diluted in a volume of 1.25% (v/v) Agri-Dex® crop oil concentrated to obtain 12× stock solutions. […] Application solutions were prepared by adding an appropriate amount of each stock solution (e.g., 1 mL) and diluted to the appropriate final concentrations with the addition of 10 mL of an aqueous mixture of 1.25% (v/v) crop oil concentrate so that the final spray solutions contained 1.25+/−0.05% (v/v) crop oil concentrate.
(§5) As required, additional water and/or 97:3 v/v acetone/DMSO was added to individual application solutions so that the final acetone and DMSO concentrations of the application solutions being compared were 8.1% and 0.25%, respectively.
(§6) All stock solutions and applications solutions were visually inspected for compound compatibility prior to application. Spray solutions were applied to the plant material with an overhead Mandel track sprayer equipped with a 8002E nozzles calibrated to deliver 187 L/ha over an application area of 0.503 m^2 at a spray height of 18 to 20 inches (46 to 50 cm) above average plant canopy height. Control plants were sprayed in the same manner with the solvent blank.
(§7) The treated plants and control plants were placed in a greenhouse as described above and watered by sub-irrigation to prevent wash-off of the test compounds. After approximately 3 weeks, the condition of the test plants as compared with that of the untreated plants was determined visually and scored on a scale of 0 to 100 percent where 0 corresponds to no injury or growth inhibition and 100 corresponds to complete kill.
(§8) Colby's equation was used to determine the herbicidal effects expected from the mixtures (Colby, S. R. 1967. Calculation of the synergistic and antagonistic response of herbicide combinations. Weeds 15:20-22.).
(§9) The following equation was used to calculate the expected activity of mixtures containing two active ingredients, A and B: Expected=A+B−(A×B/100)

[2] = tested on: Digitaria sanguinalis (L.) Scop. (DIGSA); details: 19 DAA
Excerpt: as §1, §2, §3, §4, §5, §6, §7, §8, §9

[3] = tested on: Echinochloa colona (L.) Link (ECHCO)
Excerpt: as §1, §2, §3, §4, §5, §6, §7, §8, §9

[4] = tested on: Ipomoea hederacea Jacq. (IPOHE); details: post-emergence, read-out: Visual Weed Control (%) Obs
Experimental: as §1, with “When required to ensure good germination and healthy plants, a fungicide treatment and/or other chemical or physical treatment was applied.” left out
(§10) Forms of compound A were applied on an acid equivalent basis.
as §4, §5, §6, §7, §8, §9

[5] = tested on: Echinochloa crusgalli (L.) Beauv. (ECHCG)
Experimental: as §1, with “When required to ensure good germination and healthy plants, a fungicide treatment and/or other chemical or physical treatment was applied.” left out
as §10, §4, §5, §6, §7, §8, §9

COc1c(Cl)ccc(-c2nc(C(=O)OCc3ccccc3)c(Cl)c(N)c2F)c1F [Compound A Benzyl Ester, benzyl ester of 4-amino-3-chloro-5-fluoro-6-(4-chloro-2-fluoro-3-methoxy-phenyl)pyridine-2-carboxylic acid]
Visual Weed Control (%) Obs ([1]; 4.38 g ae/ha): 70% | Visual Weed Control (%) Obs ([2]; 4.38 g ae/ha): 35% | Visual Weed Control (%) Obs ([2]; 8.75 g ae/ha): 50% | Visual Weed Control (%) Obs ([3]; 19 DAA, 4.38 g ae/ha): 65% | Visual Weed Control (%) Obs ([3]; 19 DAA, 8.75 g ae/ha): 90% | pest or weed control at 4.38 g/ha ([4]; 456 h): 0% | pest or weed control at 8.75 g/ha ([4]; 456 h): 0% | pest or weed control at 8 g/ha ([4]; 480 h): 20% | pest or weed control at 8.75 g/ha ([4]; 480 h): 10% | pest or weed control at 16 g/ha ([4]; 480 h): 40% | pest or weed control at 17.5 g/ha ([4]; 480 h): 25% | pest or weed control at 4.38 g/ha ([4]; 504 h): 10% | pest or weed control at 8.75 g/ha ([4]; 504 h): 10% | pest or weed control at 17.5 g/ha ([4]; 504 h): 25% | pest or weed control at 8 g/ha ([4]; 528 h): 10% | pest or weed control at 16 g/ha ([4]; 528 h): 10% | pest or weed control at 32 g/ha ([4]; 528 h): 35% | Visual Weed Control (%) Obs ([5]; 19 DAA, 4.38 g ae/ha): 55% | Visual Weed Control (%) Obs ([5]; 19 DAA, 8.75 g ae/ha): 85% | Visual Weed Control (%) Obs ([5]; 20 DAA, 4.38 g ae/ha): 40% | Visual Weed Control (%) Obs ([5]; 20 DAA, 8.75 g ae/ha): 70%

CCC(CC)Nc1c([N+](=O)[O-])cc(C)c(C)c1[N+](=O)[O-] [Pendimethalin, N-(1-ethylpropyl)-3,4-dimethyl-2,6-dinitrobenzenamine, reference compound]
Visual Weed Control (%) Obs ([2]; 140 g ai/ha): 0% | Visual Weed Control (%) Obs ([2]; 280 g ai/ha): 0% | Visual Weed Control (%) Obs ([3]; 19 DAA, 140 g ai/ha): 0% | Visual Weed Control (%) Obs ([3]; 19 DAA, 280 g ai/ha): 0% | Visual Weed Control (%) Obs ([3]; 19 DAA, 560 g ai/ha): 0% | pest or weed control at 140 g/ha ([4]; 456 h, 19 DAA, 140 g ai/ha): 0% | pest or weed control at 280 g/ha ([4]; 456 h, 19 DAA, 280 g ai/ha): 0% | pest or weed control at 560 g/ha ([4]; 456 h, 19 DAA, 560 g ai/ha): 0% | pest or weed control at 1120 g/ha ([4]; 504 h, 21 DAA, 1120 g ai/ha): 13% | Visual Weed Control (%) Obs ([5]; 19 DAA, 140 g ai/ha): 0% | Visual Weed Control (%) Obs ([5]; 19 DAA, 280 g ai/ha): 0% | Visual Weed Control (%) Obs ([5]; 19 DAA, 560 g ai/ha): 10% | Visual Weed Control (%) Obs ([5]; 21 DAA, 1120 g ai/ha): 18%

COc1c(Cl)ccc(-c2nc(C(=O)O)c(Cl)c(N)c2F)c1F [Compound A Acid, 4-amino-3-chloro-6-(4-chloro-2-fluoro-3-methoxyphenyl)-5-fluoropyridine-2-carboxylic acid]
Visual Weed Control (%) Obs ([1]; 8.75 g ae/ha): 60% | Visual Weed Control (%) Obs ([2]; 4.38 g ae/ha): 30% | Visual Weed Control (%) Obs ([3]; 21 DAA, 4.38 g ae/ha): 60% | Visual Weed Control (%) Obs ([3]; 21 DAA, 8.75 g ae/ha): 90% | pest or weed control at 4.38 g/ha ([4]; 456 h, 19 DAA, 4.38 g ae/ha): 0% | pest or weed control at 8.75 g/ha ([4]; 456 h, 19 DAA, 8.75 g ae/ha): 10% | pest or weed control at 35 g/ha ([4]; 504 h, 21 DAA, 35 g ae/ha): 45% | pest or weed control at 8 g/ha ([4]; 528 h, 22 DAA, 8 g ae/ha): 25% | pest or weed control at 16 g/ha ([4]; 528 h, 22 DAA, 16 g ae/ha): 35% | pest or weed control at 32 g/ha ([4]; 528 h, 22 DAA, 32 g ae/ha): 40% | Visual Weed Control (%) Obs ([5]; 19 DAA, 4.38 g ae/ha): 60%

CSC(=O)c1c(C(F)F)nc(C(F)(F)F)c(C(=O)SC)c1CC(C)C [Dithiopyr, S,S′-dimethyl-2-(difluoromethyl)-4-(2-methylpropyl)-6-(trifluoromethyl)-3,5-pyridinedicarbothioate]
Visual Weed Control (%) Obs ([1]; 35 g ai/ha): 0% | Visual Weed Control (%) Obs ([1]; 70 g ai/ha): 0% | Visual Weed Control (%) Obs ([1]; 140 g ai/ha): 0% | Visual Weed Control (%) Obs ([3]; 21 DAA, 35 g ai/ha): 0% | Visual Weed Control (%) Obs ([3]; 21 DAA, 70 g ai/ha): 0% | Visual Weed Control (%) Obs ([3]; 21 DAA, 140 g ai/ha): 0% | pest or weed control at 35 g/ha ([4]; 504 h, 21 DAA, 35 g ai/ha): 10%
